Results taken from patent US20250276955A1, “CORONAVIRUS MAIN PROTEASE INHIBITORS AND METHODS USING SAME” (Baylor College of Medicine, priority 2021, published 2025).
“Also recorded” adds a separate entry of the source.

Tests used:
SARS-COV-2 M^pro-His6 = SARS-COV-2 M^pro-His6 (Severe acute respiratory syndrome coronavirus 2, UniProt P0DTD1); assay: biochemical; type: biochemical; settings: 25 nM enzyme, 15 μM fluorescent peptide, Morrison equation; Inactive = less than 50% inhibition at 25 μM compound; read-out: M^pro-His Ki
[1] = biological target: SARS-COV-2 M^pro (authentic N- and C-termini) (Severe acute respiratory syndrome coronavirus 2, UniProt P0DTD1); assay: biochemical; type: biochemical
[2] = biological target: SARS-CoV-2 main protease (M^pro) (Severe acute respiratory syndrome coronavirus 2, UniProt P0DTD1); assay: Protein thermal shift stability assay (SYPRO Orange); type: binding
[3] = Metabolic stability in mouse liver microsomes; type: in vitro ADME; settings: 0.5 mg protein/mL, 2.0 μM compound, 1.0 mM NADPH
Experimental: (§1) The samples were collected at specific time-points 0, 30, and 60 min in duplicate. The reactions were terminated by adding an equivalent volume of ice-cold methanol and vortexed. […] Three μL of the supernatant was analyzed by UHPLC-Q Exactive Orbitrap MS (Thermo Fisher Scientific, USA) equipped with 50 mm×4.6 mm column (XDB C-18, Agilent Technologies, USA). The column temperature was maintained at 40° C. The flow rate was at 0.3 mL/min with a 30% mobile phase (acetonitrile containing 0.1% formic acid). Q Exactive MS was operated in positive mode with electrospray ionization. Ultra-pure nitrogen was applied as the sheath (45 arbitrary unit), auxiliary (10 arbitrary unit), sweep (1.0 arbitrary unit) and the collision gas. […] MS data were acquired from 80 to 1,200 Da in profile mode.

[4] = Metabolic stability in human liver microsomes; type: in vitro ADME
Experimental: as §1

HepG2 cells [5] = assay: HepG2 cell uptake assay; type: in vitro ADME; settings: 10 μM, 2 hours
Experimental: The HepG2 cells maintained in DMEM (containing 1 g/L glucose, 10% fetal bovine serum and 1% penicillin/streptomycin) were seeded in a 12-well plate (a final density of 5×10^5/well) for cell uptake assay and 96-well plate for cytotoxicity assay (a final density of 5×10^4/well). The plate was incubated at 37° C. for 24 h.
The cells in 12-well plate were treated with CDD-1713 or CDD-1976 (final concentration: 10 μM). The plate was incubated at 37° C. for another 2 hr. The medium in the plate was decanted and the cells were rinsed with 1 mL of 1×DPBS for three times. 0.5 mL of 0.25% Trypsin was added into each well and incubated for 3.5 min (at 37° C.). 1 mL of complete medium was added into each well to quench the reaction. After spinning at 350×g for 5 min, the cell pellet was reconstituted in MeOH/H2O (v/v 1/1) and CDD-1713 or CDD-1976 was extracted from 100 μL of the resulting mixture with 100 μL of ice-cold methanol. The mixtures were centrifuged at rcf 15,000 for 15 min. Three μL of the supernatant was analyzed by UHPLC-Q Exactive Orbitrap MS (Thermo Fisher Scientific, USA) equipped with 50 mm×4.6 mm column (XDB C-18, Agilent Technologies, USA). The column temperature was set at 40° C. Ultra-pure nitrogen was applied as the sheath (45 arbitrary unit), auxiliary (10 arbitrary unit), sweep (1.0 arbitrary unit) and the collision gas. […]

[6] = Plasma stability assay, human plasma; type: in vitro ADME; settings: 10 μM, 37° C., after 2 h incubation
Experimental: (§2) Compound CDD-1713 and CDD-1976 were incubated in human and mouse plasma respectively at a concentration of 10 μM in duplicate (n=2) at 37° C. At time-points of 0, 30, 60 and 120 min, 15 μL of sample were taken out and the reactions terminated by adding 75 μL of ice-cold methanol. The reaction mixtures were then vortexed for 30 sec and centrifuged at rcf 15,000 for 15 min. Following centrifugation, 3 μL of the supernatant was analyzed using UHPLC-Q Exactive Orbitrap MS. The percentage of test compound remaining at the individual time points relative to the 0 min sample was then determined.

[7] = Plasma stability assay, mouse plasma; type: in vitro ADME; settings: 10 μM, 37° C., after 2 h incubation
Experimental: as §2

[8] = tested on: SARS-COV-2 (USA_WA1/2020 isolate) in VERO E6 cells; assay: Real-Time Cell Analysis (RTCA) assay of SARS-COV-2 replication; type: cell-based
HepG2 cells [9] = assay: HepG2 cytotoxicity assay (XTT); settings: 100 μM

In the case of CN(C)C(=O)COc1ccc(-c2cccc3[nH]ncc23)cc1C=O [CDD-1976], the Ki (SARS-COV-2 M^pro-His6) is reported as 0.037 ± 0.004 µM, the “M^pro inhibition (in words)” value [1] is reported as “better inhibition compared to CDD-1713” and the Ki ([1]; 25 nM enzyme, 15 μM fluorescent peptide, Morrison equation, Inactive = less than 50% inhibition at 25 μM compound, read-out: M^pro Ki) is reported as 0.042 ± 0.005 µM. For the same compound, the “stabilization of M^pro in thermal shift assay (in words)” value [2] was “stabilized; also recorded: concentration-dependent stabilization; also recorded: most pronounced temperature shift”, the “MLM t1/2 (half-life)” value [3] was 10.2 and the “HLM t1/2 (half-life)” value ([4]; 0.5 mg protein/mL, 2.0 μM compound, 1.0 mM NADPH) was 41.4. The “metabolic stability in human liver microsomes (in words)” value ([4]; human, microsomes) was “more stable”, the “cell permeability in HepG2 uptake assay (in words)” value (HepG2 cells [5]) was “moderate cell permeability” and the “compound remaining in human plasma” value [6] was 80%. The “compound remaining in mouse plasma” value [7] was 80%, the IC50 ([8]; Severe acute respiratory syndrome coronavirus 2, Vero C1008, 75 h, read-out: IC50, inhibition of SARS-COV-2 induced cell death (RTCA)) was 2.5 µM and the “prevention of SARS-COV-2 induced cell death (in words)” value ([8]; VERO E6 cells, 75 h) was “reduced cell death in a dose-dependent manner”. The “cytotoxicity in HepG2 cells (in words)” value (HepG2 cells [9]) was “no obvious cytotoxicity”.
